Experimental data as given in patent US12606541B2, “PPARg modulators and methods of use” (Eisai R&D Management Co., Ltd., priority 2020, dated 2026).
Where two headings read alike, the source gives them in different places.

Tests used:
[1] = target: T1, His6-TEV-PPARγ-(234-505) (Homo sapiens, UniProt P37231); experiment: TR-FRET Assay to Measure Co-R Peptide Recruitment to PPARγ; format: biochemical; conditions: Co-R peptide (SMRT-ID2) recruitment, top final concentration 20 μM, read-out: TR-FRET i-Ag, AC50
T1 construct: The His6-TEV-PPARγ-(234-505) protein for assay was expressed and purified; TEV cleavage site (N); made in house
T1 sequence (P37231 234-505): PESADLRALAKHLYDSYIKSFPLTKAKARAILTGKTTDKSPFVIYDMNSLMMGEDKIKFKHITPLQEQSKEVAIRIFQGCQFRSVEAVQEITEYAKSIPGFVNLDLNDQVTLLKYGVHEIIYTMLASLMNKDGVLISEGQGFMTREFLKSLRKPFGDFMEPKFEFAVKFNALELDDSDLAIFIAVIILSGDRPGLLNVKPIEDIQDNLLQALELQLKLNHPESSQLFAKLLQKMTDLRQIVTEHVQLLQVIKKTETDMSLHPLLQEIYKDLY
In short: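 His-tagged PPARγ (or controls) was preincubated with compound for 20 minutes at room temperature, then 5 nM anti-His terbium antibody and 200 nM FITC-labeled SMRT-ID2 corepressor peptide (final) were added for a further hour. TR-FRET signal was normalized to percent response using 500 nM T0070907 and DMSO controls.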

[2] = test system: UM-UC-9 engineered cells; experiment: Cell proliferation / short-term viability assay, CellTiter-Glo 144 h; format: cell-based, human; conditions: read-out: CTGlo 144 h UMUC9.5, G150
In short: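 UM-UC-9 engineered assay-ready cells seeded at 500 cells/well in high-glucose DMEM/10% FBS, treated from dose-response plates, grown at 37° C, 5% CO2. CellTiter-Glo 2.0 luminescence read on day 7, with a day-0 pretreatment plate as T0 reference and DMSO wells as negative control.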

Row | Compound | AC50 [1] | IC50 [2] | IC50 ([2]; Homo sapiens, UM-UC-9, 144 h) | other results
1 | COc1cc(-c2cc(C(=O)N3CC[C@H](C(=O)NC4CCN(c5ccnc6[nH]ncc56)C4)CC34CC4)n[nH]2)c(F)cn1 (single isomer, unassigned) [Example 450-B] | 6.8 nM | 834 nM |  | 
2 | COc1cc(-c2cc(C(=O)N3CC[C@H](C(=O)NCc4ncccc4C(F)(F)F)CC34CC4)[nH]n2)c(F)cn1 [Example 510, (S)-4-(3-(5-fluoro-2-methoxypyridin-4-yl)-1H-pyrazole-5-carbonyl)-N-((3-(trifluoromethyl)pyridin-2-yl)methyl)-4-azaspiro[2.5]octane-7-carboxamide] | 3.8 nM |  | 1.8 nM | 
3 | COc1cc(-c2cc(C(=O)N3CC[C@H](C(=O)NCc4ncc(F)cn4)CC34CC4)[nH]n2)c(F)cn1 [Example 512, (S)-4-(3-(5-fluoro-2-methoxypyridin-4-yl)-1H-pyrazole-5-carbonyl)-N-((5-fluoropyrimidin-2-yl)methyl)-4-azaspiro[2.5]octane-7-carboxamide] | 11.2 nM |  | 97.2 nM | 
4 | COc1cc(-c2cc(C(=O)N3CCC(C(=O)NC4CCC(O)(C(F)(F)F)CC4)CC34CC4)n[nH]2)ncn1 (single isomer, unassigned) [Example 338-A] | 9.3 nM | 16.2 nM |  | 
5 | COc1cc(-c2cc(C(=O)N3CCC(C(=O)NC(C)c4ccc5[nH]nc(C)c5c4)CC3)n[nH]2)c(F)cn1 (racemic) [Example 281, 1-(5-(5-fluoro-2-methoxypyridin-4-yl)-1H-pyrazole-3-carbonyl)-N-(1-(3-methyl-1H-indazol-5-yl)ethyl)piperidine-4-carboxamide] | 101 nM |  | 632 nM | 
6 | CO[C@]1(C(F)(F)F)CC[C@H](NC(=O)[C@@H]2CCN(C(=O)c3cc(-c4cc(C)ncc4F)[nH]n3)C3(CC3)C2)CC1 (single isomer, unassigned) [Example 293-B] | 1640 nM |  | 3240 nM | 
7 | COc1cc(-c2cc(C(=O)N3CCC(C(=O)NCc4ccc5cnccc5c4)CC3)n[nH]2)c(Cl)cn1 [Example 182, 1-(5-(5-chloro-2-methoxypyridin-4-yl)-1H-pyrazole-3-carbonyl)-N (isoquinolin-6-ylmethyl)piperidine-4-carboxamide] | 422 nM |  | 1600 nM | 
8 | COc1cc(-c2[nH]nc(C(=O)N3CCC(C(=O)NC4CCC(C)CC4)CC3)c2Cl)ccn1 (single isomer, unassigned) [Example 110-A] |  |  |  | AC50 ([1]; listed as 110a): 2160 nM; IC50 ([2]; listed as 110a): 3190 nM
9 | COc1cc(-c2cc(C(=O)N3CCC(C(=O)NC4CCC(O)(C(F)(F)F)CC4)CC3)n[nH]2)c(Cl)cn1 (mixture of isomers) [Example 144, 1-(5-(5-chloro-2-methoxypyridin-4-yl)-1H-pyrazole-3-carbonyl)-N-(4-hydroxy-4-(trifluoromethyl)cyclohexyl)piperidine-4-carboxamide] | 44.7 nM |  | 334 nM | 
10 | COc1cc(-c2cc(C(=O)N3CC[C@H](C(=O)NC4CCC(N5CCOCC5)CC4)CC34CC4)n[nH]2)c(F)cn1 (single isomer, unassigned) [Example 418-A] | 67.4 nM |  | 152 nM | 
11 | COc1cc(-c2cc(C(=O)N3CCC(C(=O)NC4C(C)(C)C(N5CCC(F)(F)C5)C4(C)C)CC34CC4)n[nH]2)c(F)cn1 (mixture of isomers) [Example 378, (S)—N-((1s,3R)-3-(3,3-difluoropyrrolidin-1-yl)-2,2,4,4-tetramethylcyclobutyl)-4-(5-(5-fluoro-2-methoxypyridin-4-yl)-1H-pyrazole-3-carbonyl)-4-azaspiro[2.5]octane-7-carboxamide and (S)—N-((1r,3S)-3-(3,3-difluoropyrrolidin-1-yl)-2,2,4,4-tetramethylcyclobutyl)-4-(5-(5-fluoro-2-methoxypyridin-4-yl)-1H-pyrazole-3-carbonyl)-4-azaspiro[2.5]octane-7-carboxamide] | 130 nM | 224 nM |  | 
12 | N#Cc1cc(-c2cc(C(=O)N3CCC(C(=O)NC4CCC(O)(C(F)(F)F)CC4)CC34CC4)n[nH]2)ncn1 (racemic) [Example 528, (R)-4-(5-(6-cyanopyrimidin-4-yl)-1H-pyrazole-3-carbonyl)-N-((1r,4R)-4-hydroxy-4-(trifluoromethyl)cyclohexyl)-4-azaspiro[2.5]octane-7-carboxamide and (S)-4-(5-(6-cyanopyrimidin-4-yl)-1H-pyrazole-3-carbonyl)-N-((1r,4S)-4-hydroxy-4-(trifluoromethyl)cyclohexyl)-4-azaspiro[2.5]octane-7-carboxamide] | 6 nM | 479 nM |  | 
13 | COc1cc(-c2cc(C(=O)N3CC[C@H](C(=O)NC4CCC(C(F)(F)F)C(O)C4)CC34CC4)n[nH]2)c(F)cn1 (single isomer, unassigned) [Example 501-B] | 51.1 nM | 258 nM |  | 
14 | (1R,3s,5S)-8-(5-(5-fluoro-2-methoxypyridin-4-yl)-1H-pyrazole-3-carbonyl)-N—((R)-1-(3-(trifluoromethyl)-1,2,4-oxadiazol-5-yl)ethyl)-8-azabicyclo[3.2.1]octane-3-carboxamide and (1R,3s,5S)-8-(5-(5-fluoro-2-methoxypyridin-4-yl)-1H-pyrazole-3-carbonyl)-N—(S)-1-(3-(trifluoromethyl)-1,2,4-oxadiazol-5-yl)ethyl)-8-azabicyclo[3.2.1]octane-3-carboxamide [Example 290] | 400 nM | 833 nM |  | 
15 | COc1cc(-c2cc(C(=O)N3CCC(C(=O)NCC4CCc5[nH]ncc5C4)CC34CC4)n[nH]2)c(F)cn1 (single isomer, unassigned) [Example 341-B] | 8.1 nM | 12.2 nM |  | 
16 | COc1cc(-c2cc(C(=O)N3CCC(C(=O)NCc4cccc(Cl)c4)CC3)n[nH]2)c(F)cn1 [Example 159, N-(3-chlorobenzyl)-1-(5-(5-fluoro-2-methoxypyridin-4-yl)-1H-pyrazole-3-carbonyl)piperidine-4-carboxamide] | 27.1 nM |  | 62.4 nM | 
17 | COc1cc(-c2cc(C(=O)N3CC[C@@H](C(=O)NCC45CCC(O)(CC4)CC5)CC34CC4)n[nH]2)c(F)cn1 (single isomer, unassigned) [Example 313-A] | 1290 nM |  | 3890 nM | 
18 | COc1cc(-c2cc(C(=O)N3C4CCC3CC(C(=O)NC3CCC(C(F)(F)F)N(C)C3)C4)n[nH]2)c(F)cn1 (mixture of isomers) [Example 306-A] | 13.9 nM |  | 78.8 nM | 
19 | COc1cc(-c2cc(C(=O)N3CCC(C(=O)NC4CCC(C)(O)CC4)CC3)n[nH]2)c(Cl)cn1 (stereo not shown) [Example 264-A] | 658 nM |  | 4890 nM | 
20 | COc1cc(-c2cc(C(=O)N3CC[C@H](C(=O)NCc4ccc5[nH]nc(F)c5c4)CC34CC4)n[nH]2)c(F)cn1 (single isomer, unassigned) [Example 288-A] | 4.4 nM |  | 0.9 nM | 
21 | COc1cc(-c2cc(C(=O)N3CCC(C(=O)NCc4ncc(C(F)(F)F)cc4Cl)CC3)n[nH]2)c(Cl)cn1 [Example 193, 1-(5-(5-chloro-2-methoxypyridin-4-yl)-1H-pyrazole-3-carbonyl)-N-((3-chloro-5-(trifluoromethyl)pyridin-2-yl)methyl)piperidine-4-carboxamide] | 394 nM |  | 1200 nM | 
22 | COc1cc(-c2cc(C(=O)N3CCC(C(=O)NCc4cccc(Cl)c4)CC3)n[nH]2)c(Cl)cn1 [Example 112, 1-[5-(5-chloro-2-methoxypyridin-4-yl)-1H-pyrazole-3-carbonyl]-N-[(3-chlorophenyl)methyl]piperidine-4-carboxamide] | 30.3 nM |  | 111 nM | 
23 | COc1cc(-c2cc(C(=O)N3CC[C@H](C(=O)NCC45COC(CN)(C4)C5)CC34CC4)n[nH]2)c(F)cn1 [Example 499, (S)—N-((1-(aminomethyl)-2-oxabicyclo[2.1.1]hexan-4-yl)methyl)-4-(5-(5-fluoro-2-methoxypyridin-4-yl)-1H-pyrazole-3-carbonyl)-4-azaspiro[2.5]octane-7-carboxamide] | 294 nM |  | > 10000 nM | 
24 | COc1cc(-c2cc(C(=O)N3CCC(C(=O)NC4CCC(C(F)(F)F)CC4)CC3)n[nH]2)c(Cl)cn1 (single isomer, unassigned) [Example 118-B] |  |  |  | AC50 ([1]; listed as 118b): 964 nM; IC50 ([2]; listed as 118b): 2960 nM
25 | N#Cc1cc(-c2cc(C(=O)N3CCC(C(=O)NC4CCC(O)(C(F)(F)F)CC4)CC34CC4)n[nH]2)ncn1 (single isomer, unassigned) [Example 528-B] | 14 nM | 405 nM |  | 
26 | COc1cc(-c2cc(C(=O)N3CCC(C(=O)NC4CCC(O)(C(F)(F)F)CC4)CC3C(F)(F)F)n[nH]2)c(F)cn1 (single isomer, unassigned) [Example 367-A] | 56.7 nM | 161 nM |  | 
